According to patent US20100130432A1, “Non-Natural Amino Acids and Neurotensin Analogues Thereof” (priority 2005, published 2010):
Entries after “also recorded” stand apart in the source; their conditions may differ. Where two headings read alike, the source gives them in different places. Non-standard residues stand in square brackets, D forms with d. Residues, ends and D or L forms follow the SMILES beside them. *: point of attachment. Tle = CC(C)(C)[C@H](N)C(=O)O; X1 = C[C@@H](CCCCCN)C(=O)*

Assays:
rats [1] = assay: d-Amphetamine induced hyperlocomotion / locomotor activity chambers; format: in vivo, rat
Excerpt: Sound- and light-attenuated locomotor cages are used to measure the ability of potential candidates to decrease d-amphetamine-induced hyperactivity.
d-Amphetamine induced hyperlocomotion. Experimentally I male Sprague-Dawley rats were housed as described above. Rats were handled for three days prior to testing to minimize experimenter induced hyperlocomotion on test day. For experiments, sound- and light-attenuated automated photocell beam activity chambers (AccuScan Instruments, Inc., Columbus, Ohio) were used to measure locomotion. Cages were connected to a VersaMax Analyzer (AccuScan) in conjunction with an IBM computer using VersaMax 1.80-0146 software (AccuScan) to record vertical and horizontal activity. Total activity values recorded were the sum of vertical and horizontal activity. […]
Rats were placed in the activity chambers for 30 minutes to habituate and establish baseline activity levels. Then, rats were removed and given an IP or oral dose of peptide (N=7) or saline (N=8) and returned to the chamber to establish the peptide's effect on spontaneous activity levels. About 30 minutes after administration, rats were removed and given an IP injection of d-amphetamine (1 mg/kg) or vehicle and returned to the chamber for a further 1 hr to assess the effect of the peptide on induced hyperlocomotion.
Chronic Testing Protocols.
Separate two-factor ANOVAs for DOSE X TIME were performed for each different time-phase of the assay. Phases for the IP dosing and oral dosing experiments consisted of habituation (time points 10-60), drug (time points 70-120), and amphetamine (time points 130-240).

rats [2] = system: rats
Excerpt: Chronic Testing Protocols. […] Induced hypothermia was monitored and tested for significance as described above. […] The test protocol for day five was as described above.

[3] = system: L5178Y TK+/−mouse lymphoma cells; settings: initial data, with and without S9
rats [4] = assay: Hotplate assay; format: in vivo, rat
Excerpt: Animals. Experimentally naïve male Sprague-Dawley rats from Charles River Laboratories, Raleigh, N.C. (230-260 g) or Harlan, Prattville Ala. (240-280 g), were maintained 4 per cage in animal quarters on a regular light/dark cycle (lights on 0600-1800) with ad libitum food and water for approximately 1 week before the experiment. The range of body weights on the 2 days of testing was 230-260 grams. The experiment was done on one day, with animals allowed to recover for three days before experiments are repeated.
Peptide Preparation. Test articles are prepared at the desired concentration in saline for either IP injection or gavage administration with N=6 for each dose and vehicle. Morphine (5 mg/kg) is used as a control for certain protocols. […] Apomorphine HCl (Sigma-Aldrich, St. Louis, Mo.) was dissolved in distilled water at a concentration of 5 mg/mL within 40 minutes of administration for injection at 1 mL/kg S.C. to give a dose of 5 mg/kg. When complete ED50s are determined, dosing range of the peptide will be 10, 3, 1, 0.3, 0.1 of the estimated ED50, covering two log orders of range.
The Hotplate Assay. The hotplate assay, a standard rat model for […] pain (see Le Bars et al., Pharmacol. Rev. 53: 597-652 (2001) and Chapman et al., Pain 22:1-31 (2002)), was performed as follows. A hotplate maintained at 52° C. to 53° C. was enclosed on four sides in a plexiglass chamber that extended 6 in. above the plate. Animals were placed on the plate, and the latency between the time a rat was placed on the surface and when it lifts or licks a back paw (indicative of pain sensation) was determined. Animals are removed immediately at the cutoff latency of 30 seconds. Assays are scored as the percent of maximal possible effect (% MPE) defined as 100%, which corresponds to the rats remaining on the hotplate for 30 seconds without responding. Thus, % MPE are calculated using the following equation: % MPE=[(post-drug latency−pre-drug latency)/(cut-off pre-drug latency)]×100%. N=6 or greater for all experiments.
Tmax indicates the time after dosing in which a maximum response was observed.

[5] = Brain distribution of ABS201 (LC/MS/MS)
Excerpt: (§1) At selected time points, blood was removed or brain harvested and the concentration of the peptide analog determined using LC/MS/MS.
(§2) These samples were then used for the determination of plasma and brain drug levels by LC/MS/MS for estimating BBB penetration and pharmacokinetic parameters.

[6] = Plasma stability, quantitative MALDI-MS assay; format: in vitro ADME
[7] = Pharmacokinetics of ABS201 in blood/plasma (LC/MS/MS)
Excerpt: as §1, §2

mouse bone marrow cells = assay: Micronucleus study; format: in vivo; settings: initial data
Procedure: Genetic Toxicology. […] Experimental protocols are as follows.
In the micronucleus study, 90 CD-1 mice used in the study consisted of 10/sex/group in Groups 1-4 (control, low-, mid-, and high-dose) and 5/sex in the positive control group. Test peptide as administered orally, the positive control, Cyclophosphamide at 80 mg/kg, as administered orally. Approximately 24 and 48 hours after dosing, mice were killed and bone marrow obtained from both femurs. A slide of a bone marrow suspension was prepared, stained with Wright-Giemsa stain, dried, and scored blind. The number of polychromatic erythrocytes (PCE) among the total erythrocytes (PCE+normochromatic erythrocytes (NCE)) were determined for each animal by counting at least 200 erythrocytes. The number of micronucleated polychromatic erythrocytes (MPCE) then were scored for 2000 PCE per animal. A positive result was obtained, if there is a positive dose-response trend or statistically significant increase in the number of MPCE at one or more dose levels compared to controls.

[8] = 5 or 30 min incubation at 37° C.
[9] = target: hERG (human ether-a-go-go related gene) channels (Homo sapiens, UniProt Q12809); settings: initial results
Sequence of hERG (human ether-a-go-go related gene) channels (Q12809 whole entry): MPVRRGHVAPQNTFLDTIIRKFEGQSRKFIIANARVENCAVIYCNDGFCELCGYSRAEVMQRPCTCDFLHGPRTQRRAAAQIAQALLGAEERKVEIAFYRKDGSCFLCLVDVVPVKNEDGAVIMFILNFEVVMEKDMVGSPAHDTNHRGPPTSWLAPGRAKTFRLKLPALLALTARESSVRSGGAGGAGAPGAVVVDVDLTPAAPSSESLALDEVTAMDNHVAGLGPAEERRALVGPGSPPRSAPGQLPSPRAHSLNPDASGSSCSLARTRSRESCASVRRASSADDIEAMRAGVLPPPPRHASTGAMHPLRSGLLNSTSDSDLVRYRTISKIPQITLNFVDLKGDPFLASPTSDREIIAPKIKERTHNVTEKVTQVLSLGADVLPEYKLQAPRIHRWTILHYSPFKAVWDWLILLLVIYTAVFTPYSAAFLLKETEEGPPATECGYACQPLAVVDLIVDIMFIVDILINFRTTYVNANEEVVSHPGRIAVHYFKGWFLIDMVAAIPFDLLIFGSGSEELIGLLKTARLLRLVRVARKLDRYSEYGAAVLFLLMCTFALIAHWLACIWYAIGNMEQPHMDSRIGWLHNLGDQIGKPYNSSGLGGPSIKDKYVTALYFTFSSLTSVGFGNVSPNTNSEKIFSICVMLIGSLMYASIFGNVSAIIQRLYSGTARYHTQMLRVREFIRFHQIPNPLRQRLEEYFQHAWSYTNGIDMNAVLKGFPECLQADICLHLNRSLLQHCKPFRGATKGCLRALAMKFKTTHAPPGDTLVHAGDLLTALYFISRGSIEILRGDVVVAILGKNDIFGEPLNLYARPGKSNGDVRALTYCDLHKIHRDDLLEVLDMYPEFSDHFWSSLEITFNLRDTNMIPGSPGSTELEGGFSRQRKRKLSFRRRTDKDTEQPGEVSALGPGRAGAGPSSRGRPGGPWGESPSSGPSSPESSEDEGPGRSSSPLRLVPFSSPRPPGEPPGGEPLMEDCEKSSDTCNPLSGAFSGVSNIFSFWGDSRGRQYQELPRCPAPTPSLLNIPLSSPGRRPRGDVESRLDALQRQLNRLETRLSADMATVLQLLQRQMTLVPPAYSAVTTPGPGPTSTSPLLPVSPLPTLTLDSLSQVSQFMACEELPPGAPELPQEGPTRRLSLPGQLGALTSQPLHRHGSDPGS
Procedure: hERG Assay. The objective of the hERG study is to assess the effects of the test article on the rapidly activating inward rectifying potassium current (IKr) conducted by hERG (human ether-a-go-go related gene) channels stably expressed in a HEK293 cell line. The method used is as follows. HEK293 cells, stably transfected with hERG cDNA, were used in the study. All experiments were performed at near-physiological temperature (35±2° C.). A positive control (60 nM terfenadine) was applied to two cells (n 2). Cells were be transferred to the recording chamber and superfused with HB-PS solution. The recording chamber and bathing solution were maintained at a temperature of 35±2° C. using a combination of in-line solution pre-heater, chamber floor heater, and feedback temperature controller. Bath temperature were measured using a thermistor probe.
Patch pipettes were made from glass capillary tubing using a P-97 micropipette puller (Sutter Instruments, CA). A commercial patch clamp amplifier was used for whole cell recordings. Before digitization, current records were low-pass filtered at one-fifth of the sampling frequency.
Cells stably expressing hERG were held at −80 mV.

rats [10] = assay: Catalepsy, horizontal bar test
Procedure: Cataleptic Analysis. […] To circumvent these potential confounding factors, tests are performed on an animal only once in a quiet, controlled environment.
Catalepsy Assessment. […] Rats were given an IP injection of peptide (5 mg/Kg), saline, or haloperidol (1 mg/kg). After 3 hours, catalepsy was measured using the horizontal bar test. Briefly, the front paws were placed directly on a horizontal bar 5 mm in diameter placed 7.5 cm above the cage floor. The rat was held in this position for 3 sec and then released. The time from release until the paws return to the cage floor was measured and recorded. A cut-off time of 30 sec was observed; this indicated a fully cataleptic animal as cataleptic animals are frozen to the bar. […] Measures were repeated every 30 min for 4 hr. Data are means±SEM (p<0.01).

For `CC(C)C[C@H](NC(=O)[C@@H](NC(=O)[C@H](Cc1ccc(O)cc1)NC(=O)[C@@H]1CCCN1C(=O)[C@H](CCCNC(=N)N)NC(=O)[C@@H](C)CCCCCN)C(C)(C)C)C(=O)O` [ABS201, hLys-Arg-Pro-Tyr-t-Leu-Leu] (X1-RPY[Tle]L-OH), the “ED50 inhibition of amphetamine-induced hyperlocomotion” value (rats [1]; IP) was “about 1 mg/kg”, the “effect of repeated daily dosing on attenuation of d-amphetamine induced hyperlocomotion” value (rats [1]; IP 5 mg/kg daily, 5 days) was “had no effect” and the “spontaneous locomotor activity, drug phase” value (rats [1]; IP, all dose groups) was “responded significantly lower than saline during the drug phase”. The “effect on d-amphetamine induced hyperactivity” value (rats [1]; IP, all doses) was “significantly reduced hyperlocomotion for all doses tested”, the “spontaneous locomotor activity, drug phase” value (rats [1]; oral 10, 20, 30 mg/kg) was “only the 10 and 30 mg/kg doses reduced spontaneous locomotor activity” and the “effect on d-amphetamine induced hyperlocomotion” value (rats [1]; oral 10-30 mg/kg, time points 140-180) was “reduced locomotor activity”. The “dose tolerance” value (rats [2]; 10x ED50 administered daily over 5 days) was “No”, the dose tolerance (rats [2]; I.P. 5 days at 5× the ED50, hypothermia and amphetamine-induced locomotion) was “not observed” and the antinociception (rats [2]; summary of behavioral effects) was “not antinociceptive”. The “mouse lymphoma study result” value [3] was “inactive”, the “analgesic activity (% MPE) compared with morphine” value (rats [4]; ABS201 5 mg/kg, Morphine 5 mg/kg) was “comparable in extent and duration to morphine” and the “tolerance to the analgesic activity” value (rats [4]; dosed daily for five days) was “do not become tolerant”. For the same compound, the “MPE (I.P.)” value (rats [4]; hotplate, IP at 10 mg/kg) was 100%, the “Tmax (I.P.) of % MPE” value (rats [4]; hotplate, IP at 10 mg/kg) was 15-45 and the “MPE (oral)” value (rats [4]; hotplate, orally at 20 mg/kg) was 39%. The “Tmax (Oral) of % MPE” value (rats [4]; hotplate, orally at 20 mg/kg) was 30, the “Toxicity, dose without toxicity” value (single acute dose I.P.) was “(>100 x ED50)” and the Toxicity (single acute dose at 100x ED50 I.P.) was “No”. For the same compound, the levels in brain ([5]; IV 1 mg/kg and PO 30 mg/kg) was “below the LLOD at all times”, the levels in brain ([5]; IV 5 mg/kg) was “below the LLOD at all times” and the levels in brain ([5]; oral 50 mg/kg, 15 minutes post administration) was “detected in brains of 2 of 3 animals”. The half-life [6] was greater than 167 h, the “time by which plasma levels decreased below the LLOD” value ([7]; IV 1 mg/kg) was no more than 45 min and the “clearance as % of rat hepatic blood flow” value ([7]; IV 5 mg/kg) was 74.02%. For the same compound, the “time measurable in whole blood” value ([7]; IV 5 mg/kg) was “up to 120 minutes”, the “time detectable in the blood and brain” value ([7]; IV 5 mg/kg and oral 50 mg/kg) was “up to 120 minutes” and the plasma levels ([7]; oral 30 mg/kg) was “below the LLOD at all times”. The “levels in whole blood” value ([7]; oral 50 mg/kg) was “below the LLOD at all times”, the Vd ([7]; rat, in vivo, iv, 5 mg/kg) was 0.87 ± 0.27 L/kg and the clearance ([7]; rat, in vivo, iv, 5 mg/kg) was 40.8 mL/min/kg. For the same compound, the micronucleus study result (mouse bone marrow cells) was “inactive”, the “binding to plasma proteins” value [8] was “little or no binding” and the hERG study result [9] was “inactive”. The catalepsy (rats [10]; IP 5 mg/kg, 5 mg/kg) was “does not induce catalepsy; also recorded: does not induce a cataleptic state” and the catalepsy (rats [10]; Table 11) was “No”.
